Data reported in patent US20060025471A1, “Xanthenyl cubane analogs with activity at the metabotropic glutamate receptors” (priority 2002, published 2006).

Assays:
fear potentiated startle = assay: Fear potentiated startle model; assay type: in vivo, rats
Description: The fear potentiated startle model permits measurement of learned fear of a stimulus that has been paired with repeated foot shocks. The effect of a candidate compound on fear potentiated startle can be compared with a known standard such as diazepam and a negative control (such as buffer only). The fear potentiated startle test can be conducted at various time points following administration of a candidate compound.
The anxiolytic properties of a thioxanthenyl cubane (Compound 6) were examined using the fear potentiated startle model. This model permits measurement of learned fear of a stimulus that has been paired with repeated foot shocks. The effect of Compound 6 on fear potentiated startle was compared with the known standard, diazepam. All tests were run 30 min after intraperitoneal drug administration. Compound 6 was administered at 1.0, 3.0, 10 and 15 mg/kg in rats.
The oral bioavailability and efficacy of a thioxanthenyl cubane (Compound 6) was studied using the fear potentiated startle model. Compound 6 was administered by gavage at a dose of 12 mg/kg. Following a 90 minute period allowed for drug absorption, the oral efficacy was examined using the fear potentiated startle model. As shown in FIG. 8 oral Compound 6 was effective in reducing the fear potentiated startle model.
The onset and duration of a thioxanthenyl cubane (Compound 6) was studied using the fear potentiated startle model. Thioxanthenyl cubane was administered by gavage at a dose of 15 mg/kg. The effect of oral Compound 6 on fear potentiated startle was examined at 30 minutes, 1, 2, 4, 6 and 8 hours post drug administration.

fear induced freezing = assay: Fear induced freezing model; assay type: in vivo, rat; conditions: diazepam at 3 mg/kg; for reduction in freezing, context alone: environment alone; for reduction in freezing, context plus tone: environment with conditioning sound
Description: The anxiolytic properties of a candidate compound can also be examined using the fear induced freezing model. Briefly, this test relies on the induction of a well known effect in rats when they are challenged. The rat is subjected to a mild shock associated with a sound which results in the animal becoming very still when expecting that shock. The effect of a candidate compound on fear induced freezing can be compared with a known standard such as diazepam and a negative control (such as buffer only). The fear induced freezing test can be conducted at various time points following administration of the candidate compound.
The anxiolytic properties of a thioxanthenyl cubane (Compound 6) were also examined using the fear induced freezing model. Briefly, this test relies on the induction of a well known effect in rats when they are challenged. The rat is subjected to a mild shock associated with a sound which results in the animal becoming very still when expecting that shock.
The animal is placed in its home cage for acclimatization before being placed back in the test environment in the presence or absence of test compound. The reduction in freezing is used as a measure of anxiolysis. […] The second paradigm (context plus tone) produces a larger and more difficult to overcome anxiety.

social interaction = assay: Social interaction studies; assay type: in vivo, rat
Description: The effect of a candidate compound on social interaction can also be examined in rodents. Briefly, social interaction can be measured as follows: a strange intruder is introduced into the cage of an acclimatized treated rat and the number of times the rat either bites (# bites) or wrestles (# pins) the intruder is determined. The effect of a candidate compound on social interaction can be compared with a known standard such as diazepam and a negative control (such as buffer only). The social interaction test can be conducted at various time points following administration of the candidate compound.
The effect of a thioxanthenyl cubane (Compound 6) on social interaction was examined in rodents. Briefly, social interaction is measured as follows: a strange intruder is introduced into the cage of an acclimatized treated rat and the number of times the rat either bites (# bites) or wrestles (# pins) the intruder is determined. Compound 6 was administered at three doses and compared to saline and diazepam at 2 mg/kg.

elevated plus maze = assay: Elevated plus maze test; assay type: in vivo, rat
Description: The anxiolytic properties of candidate compounds can be further evaluated using the elevated plus maze test. This test is dependent on the predisposition of rodents to remain in the dark and offers the choice between dark areas of the maze and the opportunity to explore lighted areas. The effect of a candidate compound on the elevated plus maze test can be compared with a known standard such as diazepam and a negative control (such as buffer only). The elevated maze plus test can be conducted at various time points following administration of the candidate compound.
To further examine the anxiolytic properties of a thioxanthenyl cubane (Compound 6), the elevated plus maze test was conducted. The elevated plus maze test is sensitive to benzodiazepine type anxiolytics while other anxiolytics such as the serotonin reuptake inhibitors (SSRIs) show poor efficacy in this test. This test is dependent on the predisposition of rodents to remain in the dark and offers the choice between dark areas of the maze and the opportunity to explore lighted areas.

[1] = Functional observational battery (side effect profile); assay type: in vivo
Description: The side effect profile for an intra-peritoneally administered thioxanthenyl cubane (Compound 6) was examined and compared to diazepam using functional observational battery which is a series of observational markers designed to indicate level of impairment. The greater the functional observational battery score, the greater the impairment.

[2] = Asymmetric grid test (impairment of motor function); assay type: in vivo; conditions: 4 mg/kg; compared to the null experiment
Description: To further examine the side effect of profile of Compound 6 the assymmetric grid test was conducted to measure impairment of motor function. Briefly, in the assymetric grid test the animal is placed on one side of a grid pattern, designed to challenge the animals motor function. On the other side of the grid is the animal's home cage or a reward. As the animal enters the grid it is monitored for mistakes by a camera placed horizontally in line with the grid. The camera records the number of forelimb and hindlimb intrusions through the grid and the higher the number, the greater the impairment.

[3] = test system: Cultured hippocampal pyramindal neurons; assay: In vitro anoxia study, neuronal cell death; assay type: cell-based; conditions: 30 minutes anoxia; counts 24 hours post anoxic exposure
Description: The ability of a candidate compound to inhibit neuronal cell death can be examined using an in vitro anoxia study. […] A candidate compound can be administered to the neuronal cell culture at various time points prior to exposure to the anoxic condition to examine the prophylactic activity of the compound or during or after exposure to the anoxic condition to examine therapeutic activity of the compound. Suitable negative controls include, for example, buffer in place of the candidate compound.
The neuroprotective effects of a thioxanthenyl cubane (Compound 6) were examined using an in vitro anoxia study. Cultured hippocampal pyramindal neurons were exposed to anoxic conditions (oxygen free buffer) for 30 minutes. Twenty-four hours post anoxic exposure cell counts were conducted manually.

[4] = test system: rat global ischemia model; assay: Rat global ischemia model; assay type: in vivo; conditions: 1 mg/kg intra-peritoneal post ischemic insult
Description: The neuroprotective effects of a candidate compound can also be evaluated in a number of in vivo animal models including, the rat global ischemia model. Briefly, two of the four cerebral arteries are permanently occluded and surgical silk is loosely placed around the remaining two cerebral arteries. Temporary tightening of the surgical silk leads to 4 vessel occlusion and temporary global ischemia. At various time points after ischemic insult the brain can be removed and examined for ischemic injury.
The neuroprotective effects of a thioxanthenyl cubane (Compound 6) were examined in vivo using the rat global ischemia model. Briefly, two of the four cerebral arteries are permanently occluded and surgical silk is loosely placed around the remaining two cerebral arteries. Temporary tightening of the surgical silk leads to 4 vessel occlusion and temporary global ischemia. Seven days post ischemic insult, the brain is removed and the CA1 region of the hippocampus, a region very suspectible to ischemic damage, is examined.

focal ischemia model = assay: Starch microsphere infusion focal ischemia model; assay type: in vivo, rat
Description: Alternatively, the starch microsphere infusion focal ischemia model can be used. Briefly, starch microspheres are injected unilaterally into one of the carotid arteries. Blood flow is temporarily occluded on the injected side for approximately 30 minutes. Reperfusion occurs after the initial starch clot is resolved. At various time points after ischemic insult the brain can be removed and examined for ischemic injury.
The compounds of the present invention have been evaluated in a rat model of focal ischemia which is similar to that seen in strokes in humans. Briefly, starch microspheres are injected unilaterally into one of the carotid arteries. Blood flow is temporarily occluded on the injected side for approximately 30 minutes. Reperfusion occurs after the initial starch clot is resolved. The test compound is administered either prophylactically before vessel occlusion or therapeutically post vessel occlusion.
The neuroprotective effects of a thioxanthenyl cubane (Compound 6) were further examined using a starch microsphere infusion focal ischemia model. Briefly, starch microspheres are injected unilaterally into one of the carotid arteries. Blood flow is temporarily occluded on the injected side for approximately 30 minutes. Reperfusion occurs after the initial starch clot is resolved.
Compound 6 was intra-peritoneally administered at dosages of 0.1, 1.0, and 10 mg/kg either prophylactically or therapeutically. The prophylactic dose schedule included a dose of Compound 6 administered 30 minutes prior to ischemic insult followed by doses at 30 minutes and 3 hours post insult. For therapeutic administration, Compound 6 was administered 3 hours post insult only. […] In addition to providing substantial neuroprotection, Compound 6 reduced the incidence of seizures following ischemic insult in a dose-dependent manner.

CN1C(=O)CN=C(c2ccccc2)c2cc(Cl)ccc21 [diazepam, reference compound]
effective oral dose level in fear potentiated startle (fear potentiated startle; oral dose response (FIG. 9)): 7 mg/kg
reduction in freezing, context alone (fear induced freezing): effective
reduction in freezing, context plus tone (fear induced freezing): only effective in the less stringent first paradigm
number of bites (social interaction; 2 mg/kg): clear reduction
number of pins (social interaction; 2 mg/kg): clear reduction
time spent in the exposed (open, light) area of the maze (elevated plus maze; 2 mg/kg): clear increase
impairment, functional observational battery score ([1]; intra-peritoneal, high doses (Compound 6 very high doses)): large degree of impairment
number of forelimb and hindlimb mistakes [2]: increases significantly

NC(CC1c2ccccc2Sc2ccccc21)(C(=O)O)C12C3C4C1C1C2C3C41C(=O)O (stereo not shown) [Compound 6, 4-carboxycubane-1-thioxanthenyl-1-glycine]
number of living cells in anoxic cultures relative to control anoxic cultures [3]: 2 to 3 times
ischemic damage to the CA1 region of the hippocampus vs untreated ischemic animals ([4]; 7 days): reduction in ischemic damage
reduction in cell death ([4]; 7 days after the procedure): greater than 50%
neuroprotection in treated animals (focal ischemia model; 0.1, 1.0, 10 mg/kg intra-peritoneal, no obvious dose dependence): Neuroprotection was observed in all animals
ischemic damage to the hippocampus, especially retrospenial and piriform cortices, vs untreated ischemic animals (focal ischemia model; 0.1, 1.0, 10 mg/kg intra-peritoneal, prophylactic or therapeutic schedule): reduction in ischemic damage
incidence of seizures following ischemic insult (focal ischemia model; 0.1-10 mg/kg intra-peritoneal, dose-dependent): reduced
difference in neuronal cell number between ipsilateral and contralateral sides of the CA1 region (focal ischemia model; prophylactic or therapeutic treatment groups, 0.1, 1.0, 10 mg/kg): no significant difference
oral efficacy on fear potentiated startle (fear potentiated startle; gavage 12 mg/kg, 90 minute absorption period): effective
onset of effect on fear potentiated startle (fear potentiated startle; gavage 15 mg/kg): 30 min
time of maximum effect on fear potentiated startle (fear potentiated startle; gavage 15 mg/kg): 4 h
time of return of effect to base line (fear potentiated startle; gavage 15 mg/kg): 8 h
effect on fear potentiated startle (fear potentiated startle; intraperitoneal 1.0, 3.0, 10 and 15 mg/kg, 30 min after administration): dose dependent reduction
effect on fear potentiated startle at the highest dose (fear potentiated startle; intraperitoneal, highest dose (15 mg/kg)): tendency to reverse the effect
dose of apparent maximum reduction in fear potentiated startle (fear potentiated startle; intraperitoneal, 30 min after administration): 3 mg/kg
reduction in freezing, context alone (fear induced freezing): effective in both scenarios
reduction in freezing, context plus tone (fear induced freezing): effective in both scenarios
number of bites, compared with diazepam 2 mg/kg (social interaction; 10 mg/kg): equal reduction
number of pins, compared with diazepam 2 mg/kg (social interaction; 10 mg/kg): equal reduction
time spent in the exposed (open, light) area of the maze (elevated plus maze; 1 mg/kg): only a tendency
impairment, functional observational battery score ([1]; in vivo): this level of impairment was not observed
